We go through two compounds from ChEMBL document CHEMBL1147704, “Design and synthesis of 7H-pyrrolo[2,3-d]pyrimidines as focal adhesion kinase inhibitors. Part 2” (Bioorg Med Chem Lett, 2006).

The target of this assay is Focal adhesion kinase 1 (Homo sapiens, UniProt Q05397).
Chain of Focal adhesion kinase 1 (Q05397 whole entry): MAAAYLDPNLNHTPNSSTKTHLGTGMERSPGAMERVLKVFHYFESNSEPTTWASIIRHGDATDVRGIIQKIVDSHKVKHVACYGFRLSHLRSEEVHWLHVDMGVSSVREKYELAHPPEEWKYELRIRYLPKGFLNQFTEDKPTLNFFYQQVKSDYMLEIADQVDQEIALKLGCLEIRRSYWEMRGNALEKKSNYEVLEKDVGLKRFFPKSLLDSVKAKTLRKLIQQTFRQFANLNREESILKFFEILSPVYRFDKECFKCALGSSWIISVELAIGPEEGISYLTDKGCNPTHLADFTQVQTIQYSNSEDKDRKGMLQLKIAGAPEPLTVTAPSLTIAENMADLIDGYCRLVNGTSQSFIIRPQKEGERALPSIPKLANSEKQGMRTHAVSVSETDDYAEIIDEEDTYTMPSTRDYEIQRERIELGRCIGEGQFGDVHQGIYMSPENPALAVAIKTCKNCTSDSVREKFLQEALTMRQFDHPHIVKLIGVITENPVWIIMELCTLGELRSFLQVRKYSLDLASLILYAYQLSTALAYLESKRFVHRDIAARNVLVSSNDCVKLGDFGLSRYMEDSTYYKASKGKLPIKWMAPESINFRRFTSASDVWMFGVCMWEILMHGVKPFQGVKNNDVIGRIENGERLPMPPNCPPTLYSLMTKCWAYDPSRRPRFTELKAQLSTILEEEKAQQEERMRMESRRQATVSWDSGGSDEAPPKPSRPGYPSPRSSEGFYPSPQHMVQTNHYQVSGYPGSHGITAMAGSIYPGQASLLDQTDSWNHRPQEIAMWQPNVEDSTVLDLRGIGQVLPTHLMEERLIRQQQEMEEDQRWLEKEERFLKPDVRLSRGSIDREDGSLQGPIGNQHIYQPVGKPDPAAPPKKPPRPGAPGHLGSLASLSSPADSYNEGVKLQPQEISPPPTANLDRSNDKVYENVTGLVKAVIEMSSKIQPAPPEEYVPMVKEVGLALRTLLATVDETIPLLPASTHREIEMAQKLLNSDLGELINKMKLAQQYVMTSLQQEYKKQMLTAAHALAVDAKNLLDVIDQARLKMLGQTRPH

Broadly, the IC50 is the concentration that inhibits the measured activity by half. A low value points to greater potency in that assay. As for `COc1cc(Nc2ncc3ccn(-c4ccccn4)c3n2)cc(OC)c1OC`, the IC50 was 212 nM. For `COc1cc(Nc2ncc3ccn(-c4cccc(CCC(=O)O)n4)c3n2)cc(OC)c1OC` the value was 4 nM.
